Assay results from patent US20230322770A1, “SUBSTITUTED HETEROARYL COMPOUNDS USEFUL AS INHIBITORS OF TLR9” (BRISTOL-MYERS SQUIBB COMPANY, priority 2020, published 2023).

Key:
Format in all cases: cell-based
human TLR9 = target: T1, human TLR9 (Homo sapiens, UniProt Q9NR96); assay: TLR9 inhibition reporter assay (HEK-Blue cells, SEAP reporter); details: HEK-Blue cells overexpressing human TLR9; stimulated with ODN2006 5 nM; SEAP after 22 hour incubation
T1 construct: host or cells: HEK-Blue cells (HEK293-derived reporter line)
T1 sequence (Q9NR96 26-1032): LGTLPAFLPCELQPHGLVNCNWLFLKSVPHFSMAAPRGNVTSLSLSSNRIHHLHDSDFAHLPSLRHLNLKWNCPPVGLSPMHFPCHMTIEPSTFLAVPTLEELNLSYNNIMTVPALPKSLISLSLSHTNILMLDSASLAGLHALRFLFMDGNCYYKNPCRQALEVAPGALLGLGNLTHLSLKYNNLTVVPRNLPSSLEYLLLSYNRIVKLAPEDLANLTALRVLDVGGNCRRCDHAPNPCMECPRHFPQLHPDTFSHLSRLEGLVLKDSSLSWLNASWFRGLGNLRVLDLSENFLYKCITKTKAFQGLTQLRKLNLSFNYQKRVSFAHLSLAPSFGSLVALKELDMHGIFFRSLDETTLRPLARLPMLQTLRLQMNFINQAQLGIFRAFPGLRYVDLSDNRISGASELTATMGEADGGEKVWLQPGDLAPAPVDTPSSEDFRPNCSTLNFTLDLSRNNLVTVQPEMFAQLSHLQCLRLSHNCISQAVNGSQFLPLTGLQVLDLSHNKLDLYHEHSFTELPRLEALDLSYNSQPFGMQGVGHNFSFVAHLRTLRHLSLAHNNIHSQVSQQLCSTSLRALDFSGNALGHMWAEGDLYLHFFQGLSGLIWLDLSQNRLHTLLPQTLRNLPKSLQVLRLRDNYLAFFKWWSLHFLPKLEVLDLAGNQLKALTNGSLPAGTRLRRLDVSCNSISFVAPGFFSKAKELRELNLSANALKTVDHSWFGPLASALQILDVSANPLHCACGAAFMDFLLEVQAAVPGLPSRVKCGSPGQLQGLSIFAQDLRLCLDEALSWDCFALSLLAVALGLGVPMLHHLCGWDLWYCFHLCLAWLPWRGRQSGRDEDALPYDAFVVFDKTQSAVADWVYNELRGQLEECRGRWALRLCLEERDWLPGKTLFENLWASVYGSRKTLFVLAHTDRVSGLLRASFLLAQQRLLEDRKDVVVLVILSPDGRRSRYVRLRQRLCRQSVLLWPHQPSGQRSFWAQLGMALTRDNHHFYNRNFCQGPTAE
Experimental: (§1) TLR7/8/9 Inhibition Reporter Assays
(§2) HEK-Blue™-cells (Invivogen) overexpressing human TLR7, TLR8 or TLR9 receptors were used for screening inhibitors of these receptors using an inducible SEAP (secreted embryonic alkaline phosphatase) reporter gene under the control of the IFN-β minimal promoter fused to five NF-κB and AP-1-binding sites. Briefly, cells are seeded into Greiner 384 well plates (15000 cells per well for TLR7, 20,000 for TLR8 and 25,000 for TLR9) and then treated with test compounds in DMSO to yield a final dose response concentration range of 0.05 nM-50 μM. After a 30 minute compound pre-treatment at room temperature, the cells are then stimulated with a TLR7 ligand (gardiquimod at a final concentration of 7.5 μM), TLR8 ligand (R848 at a final concentration of 15.9 μM) or TLR9 ligand (ODN2006 at a final concentration of 5 nM) to activate NF-κB and AP-1 which induce the production of SEAP. After a 22 hour incubation at 37° C., 5% CO2, SEAP levels are determined with the addition of HEK-Blue™ Detection reagent (Invivogen), a cell culture medium that allows for detection of SEAP, according to manufacturer's specifications. The percent inhibition is determined as the % reduction in the HEK-Blue signal present in wells treated with agonist plus DMSO alone compared to wells treated with a known inhibitor.

human TLR8 = target: T2, human TLR8 (Homo sapiens, UniProt Q9NR97); assay: TLR8 inhibition reporter assay (HEK-Blue cells, SEAP reporter); details: HEK-Blue cells overexpressing human TLR8; stimulated with R848 15.9 μM; SEAP after 22 hour incubation
T2 construct: host or cells: HEK-Blue cells (HEK293-derived reporter line)
T2 sequence (Q9NR97 27-1041): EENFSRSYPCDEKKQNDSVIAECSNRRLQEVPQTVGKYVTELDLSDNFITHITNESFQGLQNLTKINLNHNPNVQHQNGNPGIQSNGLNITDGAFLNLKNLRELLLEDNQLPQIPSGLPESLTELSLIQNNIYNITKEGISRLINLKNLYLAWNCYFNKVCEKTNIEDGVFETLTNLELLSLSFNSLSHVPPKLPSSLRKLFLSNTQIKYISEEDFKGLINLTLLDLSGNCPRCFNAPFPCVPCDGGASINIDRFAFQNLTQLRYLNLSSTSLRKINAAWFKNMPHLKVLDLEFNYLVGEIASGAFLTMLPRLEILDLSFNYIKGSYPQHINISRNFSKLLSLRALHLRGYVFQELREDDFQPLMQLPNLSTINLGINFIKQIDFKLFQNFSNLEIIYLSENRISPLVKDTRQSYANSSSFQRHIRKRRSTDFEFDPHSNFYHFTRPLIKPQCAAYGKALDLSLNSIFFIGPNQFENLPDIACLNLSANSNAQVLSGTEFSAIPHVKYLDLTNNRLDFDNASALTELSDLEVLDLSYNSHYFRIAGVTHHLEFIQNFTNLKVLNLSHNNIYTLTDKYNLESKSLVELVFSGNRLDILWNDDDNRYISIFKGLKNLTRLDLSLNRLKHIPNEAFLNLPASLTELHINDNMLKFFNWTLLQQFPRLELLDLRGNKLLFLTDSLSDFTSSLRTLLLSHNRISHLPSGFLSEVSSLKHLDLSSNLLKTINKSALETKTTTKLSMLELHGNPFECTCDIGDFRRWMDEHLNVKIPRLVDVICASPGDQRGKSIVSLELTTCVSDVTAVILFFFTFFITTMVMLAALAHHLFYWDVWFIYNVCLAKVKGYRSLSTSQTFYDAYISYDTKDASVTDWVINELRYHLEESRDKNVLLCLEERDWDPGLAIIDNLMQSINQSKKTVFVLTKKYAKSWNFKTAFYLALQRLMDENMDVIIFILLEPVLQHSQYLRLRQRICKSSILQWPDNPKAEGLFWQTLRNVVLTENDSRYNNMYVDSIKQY
Experimental: as §1, §2

human TLR7 = target: T3, human TLR7 (Homo sapiens, UniProt Q9NYK1); assay: TLR7 inhibition reporter assay (HEK-Blue cells, SEAP reporter); details: HEK-Blue cells overexpressing human TLR7; stimulated with gardiquimod 7.5 μM; SEAP after 22 hour incubation
T3 construct: host or cells: HEK-Blue cells (HEK293-derived reporter line)
T3 sequence (Q9NYK1 27-1049): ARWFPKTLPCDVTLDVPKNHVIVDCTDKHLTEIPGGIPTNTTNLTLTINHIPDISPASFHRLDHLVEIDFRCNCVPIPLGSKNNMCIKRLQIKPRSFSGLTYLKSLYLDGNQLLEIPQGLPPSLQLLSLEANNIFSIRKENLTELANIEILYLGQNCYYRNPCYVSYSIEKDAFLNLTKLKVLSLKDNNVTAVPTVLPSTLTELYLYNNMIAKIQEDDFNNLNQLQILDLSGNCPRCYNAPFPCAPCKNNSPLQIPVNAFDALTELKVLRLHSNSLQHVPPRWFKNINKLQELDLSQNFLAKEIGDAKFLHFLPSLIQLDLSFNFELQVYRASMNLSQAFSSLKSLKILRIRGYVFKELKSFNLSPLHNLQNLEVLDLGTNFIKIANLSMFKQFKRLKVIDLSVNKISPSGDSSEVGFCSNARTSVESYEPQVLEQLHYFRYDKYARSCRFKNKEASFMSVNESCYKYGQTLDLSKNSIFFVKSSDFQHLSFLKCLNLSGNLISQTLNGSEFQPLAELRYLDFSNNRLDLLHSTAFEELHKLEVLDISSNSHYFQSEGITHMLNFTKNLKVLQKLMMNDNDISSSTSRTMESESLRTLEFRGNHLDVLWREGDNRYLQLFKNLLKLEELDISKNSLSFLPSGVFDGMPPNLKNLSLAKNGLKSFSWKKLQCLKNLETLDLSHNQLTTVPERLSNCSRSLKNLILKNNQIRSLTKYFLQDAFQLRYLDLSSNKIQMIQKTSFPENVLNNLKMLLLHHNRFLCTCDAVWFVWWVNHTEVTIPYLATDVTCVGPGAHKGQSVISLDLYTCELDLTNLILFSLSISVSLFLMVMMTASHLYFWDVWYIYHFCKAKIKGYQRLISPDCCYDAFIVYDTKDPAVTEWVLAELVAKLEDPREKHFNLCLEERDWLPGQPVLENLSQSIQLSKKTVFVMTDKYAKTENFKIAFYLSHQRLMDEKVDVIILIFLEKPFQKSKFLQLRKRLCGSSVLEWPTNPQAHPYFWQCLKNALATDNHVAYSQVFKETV
Experimental: as §1, §2

Row | IC50 (human TLR9) | IC50 (human TLR8) | IC50 (human TLR7) | SMILES
1 | 0.139 µM |  |  | CC(C)CN1CCN(c2ccc(-c3cnc4cc(-c5ccc(S(C)(=O)=O)cc5)n(C)c4c3)cc2)CC1 [Example 6, 6-(4-(4-Isobutylpiperazin-1-yl)phenyl)-1-methyl-2-(4-(methylsulfonyl)phenyl)-1H-pyrrolo[3,2-b]pyridine]
2 |  | > 50 µM | 29.6 µM | CC(C)CN1CCN(c2ccc(-c3cnc4cc(-c5ccc(S(C)(=O)=O)cc5)[nH]c4c3)cc2)CC1 [Example 14, 6-(4-(4-isobutylpiperazin-1-yl)phenyl)-2-(4-(methylsulfonyl)phenyl)-1H-pyrrolo[3,2-b]pyridine]
3 |  | 11.2 µM | ≥ 50 µM | Cn1c(-c2ccc(S(C)(=O)=O)cc2)cc2ncc(-c3ccc(N4CCN(CC(C)(C)O)CC4)cc3)cc21 [Example 15, 2-methyl-1-(4-(4-(1-methyl-2-(4-(methylsulfonyl)phenyl)-1H-pyrrolo[3,2-b]pyridin-6-yl)phenyl)piperazin-1-yl)propan-2-ol]
4 |  | 4.7 µM | 8.7 µM | Cn1c(-c2ccc(S(C)(=O)=O)cc2)cc2ncc(-c3ccc(N4CCN(CCC(C)(C)O)CC4)cc3)cc21 [Example 16, -methyl-4-(4-(4-(1-methyl-2-(4-(methylsulfonyl)phenyl)-1H-pyrrolo[3,2-b]pyridin-6-yl)phenyl)piperazin-1-yl)butan-2-ol]
5 | 0.275 µM |  |  | Cn1c(-c2ccc(S(C)(=O)=O)cc2)cc2ncc(-c3ccc(N4CCN5CCCC5C4)cc3)cc21 (stereo not shown) [Example 27]

Further lines, the compound ahead of its results:

Row | SMILES | IC50 (human TLR9) | IC50 (human TLR8) | IC50 (human TLR7)
6 | COc1ccc(-c2cc3ncc(-c4ccc(N5CCN(CC(C)(C)O)CC5)cc4)cc3n2C)cc1OC [Example 4, 1-(4-(4-(2-(3,4-Dimethoxyphenyl)-1-methyl-1H-pyrrolo[3,2-b]pyridin-6-yl)phenyl)piperazin-1-yl)-2-methylpropan-2-ol] | 0.256 µM |  | 
7 | COc1ccc(-c2cc3ncc(-c4ccc(C(=O)N5CCN(C(C)C)CC5)cc4)cc3n2C)cc1OC [Example 5, (4-(2-(3,4-Dimethoxyphenyl)-1-methyl-1H-pyrrolo[3,2-b]pyridin-6-yl)phenyl)(4-isopropylpiperazin-1-yl)methanone] |  | 10.2 µM | 7.2 µM
8 | COc1ccc(-c2cc3ncc(-c4ccc(N5CCN(CC6CC6)CC5)cc4)cc3n2C)cc1OC [Example 8, 6-(4-(4-(cyclopropylmethyl)piperazin-1-yl)phenyl)-2-(3,4-dimethoxyphenyl)-1-methyl-1H-pyrrolo[3,2-b]pyridine] |  | 5.6 µM | 14.4 µM
9 | COc1ccc(-c2cc3ncc(-c4ccc(N5CCN(C(C)C)CC5)nc4)cc3n2C)cc1OC [Example 9, 2-(3,4-dimethoxyphenyl)-6-(6-(4-isopropylpiperazin-1-yl)pyridin-3-yl)-1-methyl-1H-pyrrolo[3,2-b]pyridine] |  | 8.7 µM | 4.7 µM
10 | COc1ccc(-c2cc3ncc(-c4ccc(N5CCN(C(C)C)CC5)cc4)cc3n2C)cc1F [Example 10, 2-(3-fluoro-4-methoxyphenyl)-6-(4-(4-isopropylpiperazin-1-yl)phenyl)-1-methyl-1H-pyrrolo[3,2-b]pyridine] |  | 41.7 µM | 15.5 µM
11 | CC(C)N1CCN(c2ccc(-c3cnc4cc(-c5ccc(S(C)(=O)=O)cc5)[nH]c4c3)cc2)CC1 [Example 11, 6-(4-(4-isopropylpiperazin-1-yl)phenyl)-2-(4-(methylsulfonyl)phenyl)-1H-pyrrolo[3,2-b]pyridine] |  | > 50 µM | 1.9 µM
12 | COc1ccc(-c2cc3ncc(-c4ccc(N5CCN(CCC(C)(C)O)CC5)cc4)cc3n2C)cc1OC [Example 12, 4-(4-(4-(2-(3,4-dimethoxyphenyl)-1-methyl-1H-pyrrolo[3,2-b]pyridin-6-yl)phenyl)piperazin-1-yl)-2-methylbutan-2-ol] |  | 1.3 µM | 4.8 µM
13 | COc1ccc(-c2cc3ncc(-c4ccc(N5CCNCC5)cc4)cc3n2C)cc1OC [Example 13, 2-(3,4-dimethoxyphenyl)-1-methyl-6-(4-(piperazin-1-yl)phenyl)-1H-pyrrolo[3,2-b] pyridine] |  | 3.6 µM | 3 µM
14 | CC(C)N1C2CCC1CN(c1ccc(-c3cnc4cc(-c5ccc(S(C)(=O)=O)cc5)n(C)c4c3)cc1)C2 [Example 26] | 0.094 µM |  | 
15 | CC(C)N1[C@H](C)CN(c2ccc(-c3cnc4cc(-c5ccc(S(C)(=O)=O)cc5)n(C)c4c3)cc2)C[C@H]1C [Example 35] | 0.091 µM |  | 
